{
  "source": "ChEMBL document CHEMBL1146295",
  "about": "“An efficient synthesis of quinoxaline derivatives from 4-chloro-4-deoxy-alpha-D-galactose and their cytotoxic activities” (Bioorg Med Chem Lett, 2007)",
  "data": [
    {"experiment": "Cytotoxicity against human Ec9706 cells after 48 hrs by MTT assay", "format": "functional, cell-based", "details": "EC9706, 48 h", "units": {"IC50": "mg/L"}, "values": [
      {"smiles": "COC(OC)C1OC(C)(C)OC1Cc1cnc2cc(C(=O)c3ccccc3)ccc2n1", "note": "(stereo unspecified)", "IC50": 80},
      {"smiles": "COC(OC)C1OC(C)(C)OC1Cc1cnc2ccccc2n1", "note": "(stereo unspecified)", "IC50": "> 100"},
      {"smiles": "COC(OC)C1OC(C)(C)OC1Cc1cnc2ccc([N+](=O)[O-])cc2n1", "note": "(stereo unspecified)", "IC50": 69.2},
      {"smiles": "COC(OC)C1OC(C)(C)OC1Cc1cnc2ccc(C(=O)c3ccccc3)cc2n1", "note": "(stereo unspecified)", "IC50": 80},
      {"smiles": "COC(OC)C1OC(C)(C)OC1Cc1cnc2ccc(Cl)cc2n1", "note": "(stereo unspecified)", "IC50": 30.5},
      {"smiles": "COC(OC)C1OC(C)(C)OC1Cc1cnc2cc(Cl)ccc2n1", "note": "(stereo unspecified)", "IC50": 30.5}
    ]}
  ]
}
